Assay results taken from publication PMC6886403, “Structure-Based and Molecular Modeling Studies for the Discovery of Cyclic Imides as Reversible Cruzain Inhibitors With Potent Anti-Trypanosoma cruzi Activity” (Frontiers in Chemistry, 2019).
Read-outs that look alike come from different tables or passages of the source.

How the values were obtained:
[1] = Cytotoxicity in HFF-1 cells (MTS tetrazolium assay); format: cell-based; conditions: human, HFF-1 fibroblasts, mean ± SD of two independent assays
Protocol: (§1) The cytotoxicities of the compounds against HFF-1 fibroblasts and HepG2 hepatocytes were evaluated using the MTS tetrazolium assay (Promega, Madison, WI) (Barltrop et al., [1991]). HFF-1 fibroblasts were seeded at 2 × 10^3/well in 96-well culture plates in RPMI 1640 without phenol red supplemented with 10% FCS and incubated overnight (37°C, 5% CO2). HepG2 hepatocytes were seeded at 6 × 10^3/well in 96-well culture plates in DMEM (Cultilab, Campinas SP) supplemented with 10% FCS and incubated overnight (37°C, 5% CO2). The compounds were added in 3-fold serial dilutions, and the plates were incubated at 37°C with 5% CO2. Each compound concentration was evaluated in triplicate. All plates included doxorubicin (Sigma-Aldrich, St. Louis, MO) as a positive control and untreated wells (100% growth) as a negative control. After 72 h, 20 μL of MTS was added, and the plates were incubated for 4 h. The absorbance was measured at 490 nm in an automated microplate reader, and the data were transferred to SigmaPlot 10.0 (Systat Software Inc., Erkrath, Germany) for IC50 value calculation. The percent of nonviable cells was determined and compared to the negative control wells (100% growth).

[2] = Cytotoxicity in HepG2 cells (MTS tetrazolium assay); format: cell-based; conditions: human, HepG2 hepatocytes, mean ± SD of two independent assays
Protocol: as §1

[3] = test system: T. cruzi intracellular amastigotes; test: T. cruzi intracellular amastigote assay (Tulahuen lacZ strain, CPRG readout); format: cell-based, Trypanosoma cruzi; conditions: for IC50: Trypanosoma cruzi, read-out: IC50 T. cruzi
Protocol: In vitro assays against T. cruzi were performed as described previously (Ferreira et al., [2014]). The T. cruzi Tulahuen strain, which expresses the E. coli β-galactosidase gene lacZ (Buckner et al., [1996]), was provided by Frederick S. Buckner (University of Washington, Seattle, WA). Stock solutions of the synthesized compounds were prepared in 100% DMSO. Epimastigotes were grown in liver infusion tryptone (LIT) supplemented with 10% fetal calf serum (FCS), penicillin and streptomycin (28°C). Metacyclogenesis from epimastigotes to trypomastigotes was induced by incubation of the epimastigotes in Grace's insect medium (Sigma-Aldrich, St. Louis, MO) supplemented with 10% FCS (28°C). HFF-1 human fibroblasts were seeded at 2 × 10^3/well (80 μL) in 96-well tissue culture plates in RPMI 1640 without phenol red supplemented with 10% FCS and incubated overnight (37°C, 5% CO2). Next, trypomastigotes were added at 1.0 × 10^4/well (20 μL), and the plates were incubated (37°C, 5% CO2). After 24 h, 3-fold serial dilutions (50 μL) of the synthesized compounds were added at concentrations ranging from 0.1 to 100 μM, and the plates were incubated (37°C, 5% CO2). Each compound concentration was evaluated in triplicate. All plates included BZ (Sigma-Aldrich) as a positive control and untreated wells (100% growth) as a negative control. After 120 h, 50 μL of chlorophenol red β-D-galactopyranoside (CPRG, Sigma-Aldrich) and IGEPAL CA-630 (Sigma-Aldrich) (0.1%) was added to each well. The absorbance was measured at 570 nm in an automated microplate reader, and the data were transferred to SigmaPlot 10.0 (Systat Software Inc.) for IC50 value calculation.

cruzain = target: T1, cruzain (Trypanosoma cruzi, UniProt P25779); test: Cruzain inhibition assay (cleavage of fluorogenic substrate Z-Phe-Arg-AMC); format: biochemical; conditions: for inhibition at 100 µM: at 100 μM inhibitor, mean of three measurements, read-out: Percent inhibition against cruzain; for IC50: mean ± SD of three individual experiments, at least six inhibitor concentrations in triplicate, 1.5 nM cruzain, 5.0 μM Z-Phe-Arg-AMC, pH 5.5
T1 construct: inferred from Ni-NTA purification of the pro-enzyme; made in house; host or cells: Escherichia coli (M15)
Protocol: The catalytic activity of cruzain was monitored by cleavage of the fluorogenic substrate Z-Phe-Arg-aminomethyl coumarin (Z-Phe-Arg-AMC) as previously described (Ferreira et al., [2014]). The enzyme kinetics assays were performed in 0.1 M sodium acetate buffer (pH 5.5) with 5 mM dithiothreitol (DTT) and 0.01% Triton X-100. […] The enzyme reaction was monitored for 5 min at 30°C in 96-well black flat bottom plates, and the activity was calculated based on the initial rates compared with a control (DMSO). Wavelengths of 355 nm for excitation and 460 nm for emission were used. IC50 values were independently determined by determining rate measurements for at least six inhibitor concentrations, each evaluated in triplicate. To determine the mechanism of inhibition, eight substrate concentrations and four inhibitor concentrations were used, each in triplicate. The mechanism of inhibition was determined by Lineweaver-Burk plots. SigmaPlot 10.0 (Systat Software Inc., Erkrath, Germany) was used to determine the IC50 values.

[4] = set-up: method as in Pérez-Molina and Molina, 2018; conditions: patients under treatment; ref Pérez-Molina and Molina, 2018; cited from earlier work
[5] = intracellular amastigotes, Tulahuen strain in HFF-1 fibroblasts, 120 h, mean ± SD of two experiments

T1 sequence (P25779 123-337 limits assumed): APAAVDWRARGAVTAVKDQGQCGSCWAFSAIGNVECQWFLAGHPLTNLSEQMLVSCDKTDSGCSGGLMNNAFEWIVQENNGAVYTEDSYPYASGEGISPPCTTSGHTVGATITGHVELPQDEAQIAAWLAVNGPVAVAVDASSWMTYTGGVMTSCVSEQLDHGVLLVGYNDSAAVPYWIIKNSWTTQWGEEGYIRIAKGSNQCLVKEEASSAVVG

Row | SMILES | CC50 at 72 h [1] | CC50 at 72 h [2] | IC50 [3, 5] | activity against T. cruzi (in words) ([3]; intracellular amastigotes) | inhibition at 100 µM (cruzain) | decrease in potency against cruzain relative to 3a (cruzain; less active than 3a) | IC50 (cruzain) | activity against cruzain (in words) (cruzain) | IC50 ([3]; TULAHUEN, HFF-1, 120 h) | patients with severe adverse effects [4] | increase in potency against cruzain (cruzain; 10f compared with 10c/10e) | trypanocidal activity relative to BZ ([3]; higher than that of BZ) | increase in potency against cruzain relative to 3a (cruzain; more active than 3a)
1 | COc1ccc(NC(=O)COC(=O)[C@H](CC(C)C)N2CCNCC2)cc1Cl.Cl [10o, 2-((3-chloro-4-methoxyphenyl)amino)-2-oxoethyl (S)-4-methyl-2-(piperazin-1-yl)pentanoate hydrochloride] | 32 ± 3 µM | 52 ± 7 µM | 1.7 ± 0.5 µM | remarkably active | 35% |  |  |  |  |  |  |  | 
2 | COc1ccc(NC(=O)COC(=O)[C@H](CC(C)C)N2C(=O)CCC2=O)cc1Cl [10d, 2-((3-chloro-4-methoxyphenyl)amino)-2-oxoethyl (S)-2-(2,5-dioxopyrrolidin-1-yl)-4-methylpentanoate] | > 100 µM | > 64 µM | 18.5 ± 3.1 µM |  | 88% | 6 fold | 12 ± 1 µM |  |  |  |  |  | 
3 | COc1ccc(NCCOC(=O)C(CC(C)C)N2C(=O)C3CC=CCC3C2=O)cc1Cl (centres unmarked) [compound 7, 2-((3-chloro-4-methoxyphenyl)amino)ethyl 2-(1,3-dioxo-1,3,3a,4,7,7a-hexahydro-2H-isoindol-2-yl)-4-methylpentanoate] | > 100 µM | 63 ± 8 µM | 1.5 ± 0.4 µM | active | 11% |  |  | inactive |  |  |  |  | 
4 | COc1ccc(NC(=O)COC(=O)[C@H](CC(C)C)N2CCOCC2)cc1Cl [10m, 2-((3-chloro-4-methoxyphenyl)amino)-2-oxoethyl (S)-4-methyl-2-morpholinopentanoate] | > 100 µM | > 64 µM | 1.8 ± 0.4 µM | remarkably active | 14% |  |  |  |  |  |  |  | 
5 | COc1ccc(NC(=O)COC(=O)[C@H](CC(C)C)N2CCCCC2)cc1Cl [10l, 2-((3-chloro-4-methoxyphenyl)amino)-2-oxoethyl (S)-4-methyl-2-(piperidin-1-yl)pentanoate] | > 100 µM | > 64 µM | 11.6 ± 2.4 µM | moderately active | 10% |  |  |  |  |  |  |  | 
6 | O=C(Cn1ccnc1[N+](=O)[O-])NCc1ccccc1 [BZ, benznidazole, reference compound] | > 100 µM | > 64 µM |  |  |  |  |  |  | 3 ± 0.6 µM | up to 40% |  |  | 
7 | COc1ccc(NC(=O)COC(=O)[C@H](CC(C)C)N2C(=O)C(Cl)=C(Cl)C2=O)cc1Cl [10f, 2-((3-chloro-4-methoxyphenyl)amino)-2-oxoethyl (S)-2-(3,4-dichloro-2,5-dioxo-2,5-dihydro-1H-pyrrol-1-yl)-4-methylpentanoate] | 33 ± 9 µM | > 64 µM | 2 ± 0.7 µM |  | 100% |  |  |  |  |  | 6 fold |  | 
8 | COc1ccc(NC(=O)COC(=O)[C@H](CC(C)C)N2C(=O)C=C(C)C2=O)cc1Cl [10e, 2-((3-chloro-4-methoxyphenyl)amino)-2-oxoethyl (S)-4-methyl-2-(3-methyl-2,5-dioxo-2,5-dihydro-1H-pyrrol-1-yl)pentanoate] | 4.8 ± 0.5 µM | 5 ± 1 µM | 1.2 ± 0.3 µM |  | 94% |  | 2.5 ± 0.6 µM |  |  |  |  |  | 
9 | CC(C)CC(C(=O)OCC(=O)Nc1ccc(N(C)C(=O)OC(C)(C)C)cc1)N1C(=O)C2CC=CCC2C1=O (centres unmarked) [3k] | > 100 µM | > 64 µM | 3.9 ± 0.9 µM |  | 7% |  |  |  |  |  |  |  | 
10 | COc1ccc(NC(=O)COC(=O)[C@H](Cc2ccccc2)N2C(=O)C=CC2=O)cc1Cl [10j, 2-((3-chloro-4-methoxyphenyl)amino)-2-oxoethyl (S)-2-(2,5-dioxo-2,5-dihydro-1H-pyrrol-1-yl)-3-phenylpropanoate] | 15.7 ± 0.8 µM | 67 ± 8 µM | 1 ± 0.3 µM |  | 97% |  | 0.6 ± 0.1 µM |  |  |  |  | 3 fold | 4 fold
11 | COc1ccc(NC(=O)COC(=O)[C@H](CC(C)C)N2CCN(C(=O)OC(C)(C)C)CC2)cc1Cl [10n, tert-butyl (S)-4-(1-(2-((3-chloro-4-methoxyphenyl)amino)-2-oxoethoxy)-4-methyl-1-oxopentan-2-yl)piperazine-1-carboxylate] | 32 ± 5 µM | 27 ± 2 µM | 1.6 ± 0.5 µM | remarkably active | 8% |  |  |  |  |  |  |  | 
12 | COc1ccc(NC(=O)COC(=O)[C@H](CC(C)C)N2C(=O)C=CC2=O)cc1Cl [10c, 2-((3-chloro-4-methoxyphenyl)amino)-2-oxoethyl (S)-2-(2,5-dioxo-2,5-dihydro-1H-pyrrol-1-yl)-4-methylpentanoate] | 12 ± 1 µM | 33 ± 5 µM | 0.9 ± 0.3 µM |  | 95% |  | 2.3 ± 1 µM |  |  |  |  |  | 
